Assay results taken from US6087493A, “Porphyrin compounds as telomerase inhibitors” (Regents of the University of Texas System, priority 1998, dated 2000).
Read-outs that look alike come from different tables or passages of the source.

Columns and labels:
[1] = system: LNCap; experiment: Cytotoxicity (MTT) LNCap; type: cell-based, human; details: Homo sapiens; LNCap (prostate), 4-7 days; read-out: IC 50 cytotoxicity
Experimental: (§1) The cells were cultured in the presence of the porphyrins incubator for 4-7 days and then treated with 3-(4,5-dimethylthiazol-2-yl)-2,5-diphenyl-tetrazolium bromide (MTT). Formazan concentration was quantitated by absorbance at 570 nm.

[2] = system: MCF7 human breast carcinoma cells (telomerase activity); experiment: Telomerase activity in intact MCF7 cells cultured with porphyrin; type: cell-based; details: 1, 10 and 100 μM, days 4, 8 and 15
Experimental: To determine the long-term effects of TMPyP4 on whole cells, MCF7 breast carcinoma cells were cultured in the continuous presence of 1, 10, and 100 μM TMPyP4. The porphyrin solution was freshly added to the medium from the concentrated stock at each passage of the cells (every 3-4 days). On days 4, 8, and 15, the cells were lysed and the telomerase activity was measured in the extracts.
Breast cancer cells MCF-7m, BT20, HS578t and normal HS578Bst cells were grown in culture in T75 flasks (10^6 cells/flask). […] The cells were harvested and freeze-thawed and the extracts used to measure telomerase activity using the Dynabeads method.

[3] = system: MCF7 cells; experiment: Nuclear localization of TMPyP4 in MCF7 cells; type: cell-based, human
Experimental: MCF7 cells were seeded at 5×10^5 cells per flask and cultured in the presence of 0, 50, or 100 μM TMPyP4 for 7 days with one exchange of medium. The cells were harvested with trypsin-EDTA, washed with PBS and counted using a Coulter counter. The cells were then pelleted by centrifugation at 700 g and lysed in a hypotonic solution (0.1×PBS);the resulting lysate was sedimented at 700 g for 10 min. The supernatant was removed and the pellet was dissolved in 0.5 ml of 2% SDS. Absorbance of the supernatants and pellet was measured at 423 nm. TMPyP4 diluted in 2% SDS containing 1 mg/ml salmon sperm DNA was used for the standard curve.
Several reports indicate that porphyrins localize specifically in tumor tissue, although sites of subcellular localization may vary widely with porphyrin structure and net charge (De Paolis et al., 1985). […] To gain insight into the subcellular distribution of cationic porphyrins, the inventors have cultured MCF7 cells with 0, 50, or 100 μM TMPyP4 for 7 days.

[4] = system: MX-1 mammary carcinoma; details: for # CR's: n=20
Experimental: A MX-1 human breast tumor adjuvant model employed nude mice (Harlan Sprague Dawley, Inc.). The mice were implanted s.c. by trocar with fragments of MX-1 mammary carcinomas harvested from S.C. growing MX-1 tumors in nude mice hosts. When tumors were approximately 5 mm×5 mm in size (about 10 days after inoculation), the animals received cytoxan at 200 mg/kg. After tumors regressed (fifteen days after cytoxan administration), the animals were pair-matched into groups of mice, each of which was eartagged and followed individually throughout the experiment. The i.p. daily administration of TMPyP4 at 10 and 20 mg/kg five times weekly, began the day the animals were pairmatched (Day 1). TMPyP4 20 mg/kg was administered for 47 days. At the 10 mg/kg dose, TMPyP4 was administered continuously to the end of the study.
Mice were weighed twice weekly and tumor measurements were taken by calipers twice weekly, starting on Day 1. These tumor measurements were converted to mg tumor weight by a well-known formula, and from these calculated tumor weights, the termination date for each individual mouse was determined. Mice were euthanized when their tumors reached approximately 2 grams. Time to tumor recurrence and survival were monitored during the study.

[5] = system: telomere length in MCF7 cells; experiment: Telomere length analysis in MCF7 cells; type: cell-based, human; details: 1 and 10 μM, by day 8 (about 6 population doublings)
Experimental: DNA was extracted from a minimum of 5×10^6 cells by SDS, proteinase K treatment, then purified and quantitated as previously described (Strahl and Blackburn, 1991). Approximately 1 μg of total DNA was digested with Mse I; the digested DNA was size fractionated by agarose gel electrophoresis and Southern blotted. The blots were hybridized with a ^32 P-labeled 0.5 kb PCR™ DNA fragments composed of the telomere repeat d(TTAGGG), which served as a probe for the telomeres. The hybridized probe was detected by autoradiography and each lane on the film was analyzed by phosphoimage analysis (Molecular Dynamics).
Telomeres shorten at an average rate of 65-100 base pairs per cell division (Counter et al., 1992). To observe a significant effect of an agent on telomere length, e.g., shortening the telomeres by >1 kilobase in MCF7 cells (5.7 kbases), a minimum of […] population doubling times will be required.

[6] = Cytotoxicity (MTT) NHLF normal lung fibroblasts; type: cell-based; details: human, nhlf cells; NHLF (normal), 4-7 days; read-out: IC 50 cytotoxicity
Experimental: as §1
All porphyrins were obtained from Midcentury, Posen, Ill. The experimental work with porphyrins was performed under minimum exposure to light. All human tumor cell lines and normal human breast cells Hs578Bst were purchased from the American Type Culture Collection. Normal human lung fibroblasts NHLF were obtained from Clonetics Corporation. The cell lines were grown according to the suppliers' instructions.

[7] = system: HeLa; experiment: cells; type: cell-based, human; details: Homo sapiens; HeLa, MTT (n = 3 ± SEM); read-out: Cytotoxicity
[8] = system: HeLa cells; experiment: Chromosome fusion in HeLa cells; type: cell-based, human; details: 3 μM, 2-4 days
[9] = system: MDA-231; experiment: Cytotoxicity (MTT) MDA-231; type: cell-based, human; details: Homo sapiens, MDA-MB-231; MDA-231 (breast), 4-7 days; read-out: IC 50 cytotoxicity
Experimental: as §1

What does the source list for `C[n+]1ccc(-c2c3nc(c(-c4cc[n+](C)cc4)c4ccc([nH]4)c(-c4cc[n+](C)cc4)c4nc(c(-c5cc[n+](C)cc5)c5ccc2[nH]5)C=C4)C=C3)cc1` [TMPyP4, 5,10,15,20-tetra-(N-methyl-4-pyridyl)porphine]?
IC50 [1]: 22.8 µM; telomerase activity in intact MCF7 cells [2]: clear concentration-dependent loss of telomerase activity; telomerase activity in intact MCF7 cells ([2]; listed as tetra(N-methyl-4-pyridyl)porphyrin): telomerase activity is reduced relative to control cells; cytoplasm as % of nuclear fraction concentration ([3]; 50 μM TMPyP4, 7 days): 3.3%; porphyrin concentration in the nuclear pellet ([3]; 50 μM TMPyP4, 7 days): 1.39 nmoles/10^6 cells; porphyrin in cytoplasm ([3]; 50 μM TMPyP4, 7 days): 47.3 pmoles/10^6 cells; cytoplasm as % of nuclear pellet concentration ([3]; 100 μM TMPyP4, 7 days): 5.5%; porphyrin concentration in the nuclear fraction ([3]; 100 μM TMPyP4, 7 days): 7.81 nmoles/10^6 cells; porphyrin in cytoplasmic fraction ([3]; 100 μM TMPyP4, 7 days): 434 pmoles/10^6 cells; calculated concentration in the nucleus ([3]; assuming nucleus 1/100 of cell volume): 1.4 to 78 mM; calculated concentration in the cytoplasm ([3]; assuming volume of 10^6 cells 10-100 μl): 0.47 to 434 µM; # PS Remaining ([4]; 10 mg/kg): 0; # Partial Shrinkage ([4]; 10 mg/kg): 2; # Recur at 2 g ([4]; 10 mg/kg): 6; # Remaining w/Tumors ([4]; 10 mg/kg): 1; # of Recur ([4]; 10 mg/kg): 8; # of Survivors ([4]; 10 mg/kg): 11; # of Toxic Deaths ([4]; 10 mg/kg): 1; % CR's ([4]; 10 mg/kg): 90%; Avg Day of Recur ([4]; 10 mg/kg): 25 days; MDS ([4]; 10 mg/kg): 55; MDS-Partial Shrinkages ([4]; 10 mg/kg): 36.0; Mean Tumor Wt. ([4]; 10 mg/kg): 11.52 mg; # CR's ([4]; 10 mg/kg i.p. daily five times weekly): 18; # PS Remaining ([4]; 20 mg/kg): 0; # Partial Shrinkage ([4]; 20 mg/kg): 5; # Recur at 2 g ([4]; 20 mg/kg): 8; # Remaining w/Tumors ([4]; 20 mg/kg): 0; # of Recur ([4]; 20 mg/kg): 9; # of Survivors ([4]; 20 mg/kg): 6; # of Toxic Deaths ([4]; 20 mg/kg): 1; % CR's ([4]; 20 mg/kg): 75%; Avg Day of Recur ([4]; 20 mg/kg): 19.33 days; MDS ([4]; 20 mg/kg): 67.4; MDS-Partial Shrinkages ([4]; 20 mg/kg): 44.6; # CR's ([4]; 20 mg/kg i.p. daily five times weekly): 15; effect on telomere shortening [5]: No detectable effects on telomere shortening; CC50 [6]: 13.5 µM; IC50 [7]: 18.7 ± 3.89 µM; fused chromosomes [8]: number of fused chromosomes was increased in comparison with the untreated controls; IC50 [9]: 44 µM
